The test system of test [1] is IPEC-J2 cells. Description: Trans-epithelial resistance (TER) of IPEC-J2 cells under heat stress. In kind it is cell-based, pig. Particulars: 300 μM, heat stress 41.5° C.; for trans-epithelial resistance versus un-treated heat stress cells: FIG. 2. The procedure: FIG. 2 is a chart of the effect of 300 μM concentration of different test compounds on the transepithelial resistance (TER) values of IPEC-J2 cells under heat stress conditions.
When animals undergo heat stress, the increased temperature leads to damage of the epithelial layer as well as withdrawal of tight junction proteins to the cytoplasm of the epithelial cells, thus compromising the tight junctions. The compromised tight junctions allow for toxins and other inflammatory substances to enter the systemic circulation. […] As reported in FIG. 2, cells were treated with the test compounds and incubated at 41.5° C. (Con-TN) Control-Thermoneutral conditions—37° C. (CON—HS)—Control-Heat Stress conditions—41.5° C. (Zn Sulf) 300 μM Zinc Sulfate under Heat Stress Conditions—41.5° C. (ZBA) 300 μM ZBA under Heat Stress Conditions—41.5° C. (CaBA) 300 μM Calcium and Butyric Acid Salt under Heat Stress Conditions—41.5° C.

In test [2] the test system is IPEC-J2 cells. Particulars: 1 mM, normal conditions, vs control, FIG. 1.

Turning to `CCCC(=O)[O-].CCCC(=O)[O-].[Zn+2]` [ZBA, zinc salt of butyric acid in a molar ratio of 1:2], in the test with IPEC-J2 cells [1], the “trans-epithelial resistance versus un-treated heat stress cells” value is on record as “improves the trans-epithelial resistance to the level of cells grown that are grown at thermoneutral conditions”; the “trans-epithelial resistance (TER), 0 h” value stood at 1.00; the “trans-epithelial resistance (TER), 12 h” value is on record as 2.04; the “trans-epithelial resistance (TER), 24 h” value stood at 2.24. In addition, in the test on IPEC-J2 cells [1], the “trans-epithelial resistance (TER), 36 h” value was 2.60 and the “trans-epithelial resistance (TER), 48 h” value worked out at 2.76. In addition, the trans-epithelial resistance result with IPEC-J2 cells [2] was “increased trans-epithelial resistance”.
Regarding “Calcium and Butyric Acid Salt [Calcium Butyric Acid Salt]”, in the test on IPEC-J2 cells [1], the “trans-epithelial resistance versus un-treated heat stress cells” value is given as “do not improve the trans-epithelial resistance”; the “trans-epithelial resistance (TER), 0 h” value was found to be 1.00; the “trans-epithelial resistance (TER), 12 h” value is listed as 1.58; the “trans-epithelial resistance (TER), 24 h” value amounted to 1.74. Moreover, in the test with IPEC-J2 cells [1], the “trans-epithelial resistance (TER), 36 h” value is given as 1.96 and the “trans-epithelial resistance (TER), 48 h” value is given as 2.10.
Turning to `O=S(=O)([O-])[O-].[Zn+2]` [Zinc Sulfate], in the test on IPEC-J2 cells [1], the “trans-epithelial resistance versus un-treated heat stress cells” value is “do not improve the trans-epithelial resistance”; the “trans-epithelial resistance (TER), 0 h” value is reported as 1.00; the “trans-epithelial resistance (TER), 12 h” value worked out at 1.67; the “trans-epithelial resistance (TER), 24 h” value is on record as 1.89. Moreover, in the test on IPEC-J2 cells [1], the “trans-epithelial resistance (TER), 36 h” value worked out at 2.19 and the “trans-epithelial resistance (TER), 48 h” value was 2.31.

(Values after patent US10292999B2, “Treatment of enteric stress from heat and infection in humans and animals by supplementation with zinc and butyric acid” (Kemin Industries, Inc., priority 2015, dated 2019).)
